ChEMBL document CHEMBL1139363, “Iron chelators of the dipyridylketone thiosemicarbazone class: precomplexation and transmetalation effects on anticancer activity” (J Med Chem, 2009)

Test system: HL-60
Assay: Antiproliferative activity against human HL60 cells after 72 hrs by MTT assay
Type: functional, cell-based
Conditions: HL-60, 72 h

IC50: 0.01 µM
SMILES: CN(C)C(=S)NN=C(c1ccccn1)c1ccccn1
